Assays:
Conditions in all cases: incubation time: 72 h
BT-474 [1] = test: normalised viability (% of control), CellTiter-Blue; higher = more viable cells (about 100 = DMSO control)
Description: (§1)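 DSRT, CellTiter-Blue viability, 72 h incubation. Signal is normalised to DMSO and benzethonium chloride controls. Value is the normalised response at dose 3.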

BT-549 [2] = test: as above
Description: as §1

CAL-120 [3] = test: as above
Description: as §1

CAL-148 [4] = test: as above
Description: as §1

CAL-51 [5] = test: as above
Description: as §1

CAL-85-1 [6] = test: as above
Description: as §1

DU-4475 = test: as above
Description: as §1

HCC1143 = test: as above
Description: as §1

HCC1599 [7] = test: as above
Description: as §1

HCC1937 [8] = test: as above
Description: as §1

HDQ-P1 [9] = test: as above
Description: as §1

Hs578T = test: as above
Description: as §1

MDA-MB-231 = test: as above
Description: as §1

MDA-MB-436 [10] = test: as above
Description: as §1

MDA-MB-453 = test: as above
Description: as §1

MDA-MB-468 [11] = test: as above
Description: as §1

MFM-223 = test: as above
Description: as §1

SK-BR-3 = test: as above
Description: as §1

BT-474 [12] = test: drug sensitivity score (DSS), CellTiter-Glo (DSS (AUC-based score)); higher = stronger drug effect (viability inhibition or cytotoxicity); extreme values may be limits of the assay
Method in brief: (§2)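 In 384-well plates, compound was laid out at 5 concentrations in 10-fold steps over a 10,000-fold range specific to each compound, and breast cancer cell lines were seeded on top in 20 µl suspension for a 72 h incubation. CellTox Green fluorescence and then CellTiter-Glo luminescence were read, and each plate was normalised to 0.1 % DMSO and a positive kill control. The drug sensitivity score was calculated from the area under the fitted dose-response curve.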

BT-549 [13] = test: as above
Method in brief: as §2

CAL-120 [14] = test: as above
Method in brief: as §2

CAL-148 [15] = test: as above
Method in brief: as §2

CAL-51 [16] = test: as above
Method in brief: as §2

CAL-85-1 [17] = test: as above
Method in brief: as §2

HCC1599 [18] = test: as above
Method in brief: as §2

HCC1937 [19] = test: as above
Method in brief: as §2

HDQ-P1 [20] = test: as above
Method in brief: as §2

MDA-MB-436 [21] = test: as above
Method in brief: as §2

MDA-MB-468 [22] = test: as above
Method in brief: as §2

| Compound | normalised viability (BT-474 [1]; 10 nM) | normalised viability (BT-549 [2]; 10 nM) | normalised viability (CAL-120 [3]; 10 nM) | normalised viability (CAL-148 [4]; 1 nM) | normalised viability (CAL-51 [5]; 1 nM) | normalised viability (CAL-85-1 [6]; 1 nM) | normalised viability (DU-4475; 1 nM) | normalised viability (HCC1143; 10 nM) | normalised viability (HCC1599 [7]; 10 nM) | drug sensitivity score (BT-474 [12]) | drug sensitivity score (BT-549 [13]) | drug sensitivity score (CAL-120 [14]) | drug sensitivity score (CAL-148 [15]) | drug sensitivity score (CAL-51 [16]) | drug sensitivity score (CAL-85-1 [17]) | drug sensitivity score (HCC1599 [18]) | drug sensitivity score (HCC1937 [19]) | drug sensitivity score (HDQ-P1 [20]) | drug sensitivity score (MDA-MB-436 [21]) | drug sensitivity score (MDA-MB-468 [22]) | also measured |
| --- | --- | --- | --- | --- | --- | --- | --- | --- | --- | --- | --- | --- | --- | --- | --- | --- | --- | --- | --- | --- | --- |
| Cc1ccc(C(=O)N(CCCN)[C@@H](c2oc3cc(Cl)ccc3c(=O)c2Cc2ccccc2)C(C)C)cc1 | 30.3% | 27.4% | 31.1% | 92.5% | 103% | 98.7% | 105% | 46.6% | 80.5% | 0 | 0 | 0 | 0 | 9.66 | 0 | 0 | 0 | 0 | 0 | 0 | normalised viability (HCC1937 [8]; 10 nM): 25.2%; normalised viability (HDQ-P1 [9]; 1 nM): 105%; normalised viability (Hs578T; 10 nM): 19.5%; normalised viability (MDA-MB-231; 10 nM): 27.6%; normalised viability (MDA-MB-436 [10]; 10 nM): 55.9%; normalised viability (MDA-MB-453; 1 nM): 112%; normalised viability (MDA-MB-468 [11]; 10 nM): 29.1%; normalised viability (MFM-223; 10 nM): 41.6%; normalised viability (SK-BR-3; 10 nM): 18% |
| CO[C@H]1/C=C\C=C(/C)C(=O)NC2=CC(=O)C(NCCN(C)C)=C(C[C@@H](C)C[C@H](OC)[C@H](O)[C@@H](C)/C=C(\C)[C@@H]1OC(N)=O)C2=O [Alvespimycin] | 92.1% | 43.2% | 86.3% | 109% | 90% | 97.2% | 105% | 86.1% | 77% | 11.6 | 16.1 | 8.6 | 13.3 | 13.4 | 13.9 | 4.92 | 12.6 | 14 | 13.1 | 11.9 | normalised viability (HCC1937 [8]; 10 nM): 55.9%; normalised viability (HDQ-P1 [9]; 1 nM): 112%; normalised viability (Hs578T; 10 nM): 51.5%; normalised viability (MDA-MB-231; 10 nM): 97.2%; normalised viability (MDA-MB-436 [10]; 10 nM): 74.9%; normalised viability (MDA-MB-453; 1 nM): 93.4%; normalised viability (MDA-MB-468 [11]; 10 nM): 102%; normalised viability (MFM-223; 10 nM): 58.3%; normalised viability (SK-BR-3; 10 nM): 51.5% |
| O=C(O)c1ccc(-c2c[nH]c3ncc(-c4ccccc4)cc23)cc1C1CCCC1 | – | – | – | – | – | – | – | – | – | 0.507 | 0 | 0 | 0 | 0 | 0 | 0 | 0 | 0 | 0 | 0 | – |
| N.N.[Cl][Pt][Cl] [Cisplatin] | – | – | – | – | – | – | – | – | – | 0 | 0 | 0 | 0 | 0 | 0 | 0 | 0 | 0 | 0 | 0 | normalised viability (BT-474 [1]; 100 nM): 127%; normalised viability (BT-549 [2]; 100 nM): 105%; normalised viability (CAL-120 [3]; 100 nM): 86.5%; normalised viability (CAL-148 [4]; 10 nM): 94.8%; normalised viability (CAL-51 [5]; 10 nM): 108%; normalised viability (CAL-85-1 [6]; 10 nM): 104%; normalised viability (DU-4475; 10 nM): 103%; normalised viability (HCC1143; 100 nM): 103%; normalised viability (HCC1599 [7]; 100 nM): 95.4%; normalised viability (HCC1937 [8]; 100 nM): 95.1%; normalised viability (HDQ-P1 [9]; 10 nM): 130%; normalised viability (Hs578T; 100 nM): 106%; normalised viability (MDA-MB-231; 100 nM): 96.4%; normalised viability (MDA-MB-436 [10]; 100 nM): 89.8%; normalised viability (MDA-MB-453; 10 nM): 111%; normalised viability (MDA-MB-468 [11]; 100 nM): 99.1%; normalised viability (MFM-223; 100 nM): 93.7%; normalised viability (SK-BR-3; 100 nM): 90.5% |
| Cn1c(Nc2ccc(C(F)(F)F)cc2)nc2cc(Oc3ccnc(-c4ncc(C(F)(F)F)[nH]4)c3)ccc21 [RAF265] | 103% | 84.1% | 82.2% | 94% | 92.9% | 92% | 92.1% | 77.8% | 97.2% | 0.538 | 1.66 | 3.6 | 0 | 0 | 1.63 | 0 | 1.88 | 5.82 | 2.94 | 4.79 | normalised viability (HCC1937 [8]; 10 nM): 93.2%; normalised viability (HDQ-P1 [9]; 1 nM): 109%; normalised viability (Hs578T; 10 nM): 89.7%; normalised viability (MDA-MB-231; 10 nM): 100%; normalised viability (MDA-MB-436 [10]; 10 nM): 98.9%; normalised viability (MDA-MB-453; 1 nM): 100%; normalised viability (MDA-MB-468 [11]; 10 nM): 104%; normalised viability (MFM-223; 10 nM): 88%; normalised viability (SK-BR-3; 10 nM): 102% |
| C=C(c1ccc(C(=O)O)cc1)c1cc2c(cc1C)C(C)(C)CCC2(C)C [Bexarotene] | – | – | – | – | – | – | – | – | – | 1.51 | 0 | 0 | 0 | 0 | 0 | 9 | 0 | 0 | 0 | 0 | normalised viability (BT-474 [1]; 100 nM): 102%; normalised viability (BT-549 [2]; 100 nM): 73.2%; normalised viability (CAL-120 [3]; 100 nM): 104%; normalised viability (CAL-148 [4]; 10 nM): 101%; normalised viability (CAL-51 [5]; 10 nM): 84.7%; normalised viability (CAL-85-1 [6]; 10 nM): 97%; normalised viability (DU-4475; 10 nM): 110%; normalised viability (HCC1143; 100 nM): 115%; normalised viability (HCC1599 [7]; 100 nM): 88%; normalised viability (HCC1937 [8]; 100 nM): 93.5%; normalised viability (HDQ-P1 [9]; 10 nM): 86.4%; normalised viability (Hs578T; 100 nM): 70.7%; normalised viability (MDA-MB-231; 100 nM): 80.5%; normalised viability (MDA-MB-436 [10]; 100 nM): 77.2%; normalised viability (MDA-MB-453; 10 nM): 92%; normalised viability (MDA-MB-468 [11]; 100 nM): 108%; normalised viability (MFM-223; 100 nM): 87.4%; normalised viability (SK-BR-3; 100 nM): 82.6% |
